# Data reported in patent US4748154A, “Peptide derivatives, their production and use” (Takeda Chemical Industries, Ltd., priority 1985, dated 1988).
# Square brackets hold non-standard residues; d marks the D form. Peptide text beside a SMILES is read from it. * marks the point of attachment. Cys(free,S-linked) = N[C@@H](CS*)C(=O)O; pGlu = O=C1CC[C@@H](C(=O)O)N1
# System: C57BL/6 mice
# Experiment: one-trial passive avoidance task, amnesia induced by cycloheximide
# Format: in vivo
# Conditions: 24 h after footshock and cycloheximide 20 mg/kg sc
# Procedure: The effect on memory process was tested in a one-trial passive avoidance task in C57BL/6 mice. The learning procedure was fundamentally the same as that used by Burbach et al (Science; 221, 1310-1312, 1983). The apparatus consisted of an illuminated compartment attached to a dark one with grid floor. Mice were placed in the light compartment and allowed to enter the dark one. When mice entered the dark compartment, an electric footshock (0.4 mA, 3 sec) was delivered. Immediately after receiving a footshock, mice were administered with cycloheximide (20 mg/kg, sc), a protein synthesis inhibitor, and a retention test trial was carried out 24 hours later. Retention of passive avoidance behavior was measured by the latency to reenter the dark compartment after placing mice in the light compartment. Five minutes before the testing, mice were treated with 5 μl of peptide in a dose of 10 pg and 10 ng by intracerebroventricular injection through a hypodermic needle attached to a 25 μl syringe. Compounds of the present invention were dissolved in saline. […] Median latencies in peptide-treated groups were expressed as a percentage of that in control, and either Mann-WhitneyU test for latencies or chi-square test for percent of mice showing latencies longer than 50 seconds was used in statistical analysis. Number of mice used in each group was 9-22.
# [1] = intracerebroventricular injection (10 pg and 10 ng tested; dose not stated per value) 5 min before retention test
Structure (SMILES),"median latency to reenter the dark compartment, as a percentage of that in control [1]","median latency to reenter the dark compartment, as a percentage of that in control (dose of 10 pg, intracerebroventricular injection 5 min before retention test)"
"NCCCC[C@@H](NC(=O)[C@@H]1CCCN1C(=O)[C@H](CSSC[C@H](N)C(=O)O)NC(=O)[C@H](CC(N)=O)NC(=O)[C@@H]1CCC(=O)N1)C(=O)O [Example 1] ([pGlu]NC(Cys(free,S-linked))P[dK]-OH)",238%,
"NCCCC[C@@H](NC(=O)[C@H]1CCCN1C(=O)[C@H](CSSC[C@H](N)C(=O)O)NC(=O)[C@H](CC(N)=O)NC(=O)[C@@H]1CCC(=O)N1)C(=O)O [Example 6] ([pGlu]NC(Cys(free,S-linked))[dP][dK]-OH)",238%,
"C[C@H](NC(=O)[C@H](CSSC[C@H](N)C(=O)O)NC(=O)[C@H](CC(N)=O)NC(=O)[C@@H]1CCC(=O)N1)C(=O)N[C@H](CCCCN)C(=O)O [Example 8] ([pGlu]NC(Cys(free,S-linked))A[dK]-OH)",179%,
"N=C(N)NCCC[C@H](NC(=O)[C@@H]1CCCN1C(=O)[C@H](CSSC[C@H](N)C(=O)O)NC(=O)[C@H](CC(N)=O)NC(=O)[C@@H]1CCC(=O)N1)C(=O)NCC(N)=O [reference compound] ([pGlu]NC(Cys(free,S-linked))PRG-NH2)",,191 % of control
